The numbers were not newly measured in patent publication US20130331400A1, “METHOD FOR PRODUCING INDIGO-PLANT LEAF EXTRACT” (SUNSTAR INC.,, priority 2011, published 2013), which cites them from elsewhere.

The conditions of data set [1]: general statement in background art.
Data set [2] concerns fungi of the genus Malassezia. The following applies: reported in PTL 1.
Data set [3] relates to type IV allergic reactions. To be noted: reported in PTL 2.

The structures appear in SMILES notation.

For `O=C1c2ccccc2-n2c1nc1ccccc1c2=O` [tryptanthrin], in data set [1], the “Light stability of tryptanthrin (in words)” value is “poor light stability”. Also, in data set [2], the “Antibacterial action against fungi of the genus Malassezia (in words)” value is recorded as “has an antibacterial action against fungi of the genus Malassezia”. Besides, in data set [3], the “Effect on type IV allergic reactions (in words)” value is “effect of suppressing type IV allergic reactions”.
